From patent publication US9856732B2, “Tracers” (RESTRACK AS, priority 2012, dated 2018)

What was measured:
[1] = Oil/water partition coefficient from flooding experiment on silica-packed column at residual oil saturation; format: physicochemical; conditions: 80° C., oil 2 and water 2
Protocol: Structural formulas of examples of compounds from four groups of fluorinated benzyl alcohols tested are shown herein, including in FIG. 1. The compounds could be analyzed using gas chromatography with mass spectrometric detection (GC-MS) in produced water after clean-up and pre-concentration of the water samples. Detection limits of 50 ng/l (ppt) could be obtained depending on the level of interferences from the sample matrix. Several compounds from the four groups were selected and tested for thermal stability, flooding properties, and adsorption to rock materials. In addition, two pilot field tests were initiated. Some results from the laboratory tests are shown in Table 1 and in FIG. 2 to FIG. 10. Partition coefficients were measured at 80° C., oil 2 and water 2.
A still further feature of the benzyl alcohol compounds used in the various aspects of the present invention is their highly suitable partition coefficients. For example, compounds of formula i) or preferred compounds as described herein may have partition coefficients between 1.0 and 8.0. The partition coefficients should not be too high because the partitioning tracers then will be retained too much compared to the passive water tracer. Preferable values for the partition coefficients will be between 1.2 and 7, preferably between 1.3 and 5. In all cases referred to herein partition coefficients are measured at 80° C., oil 2 and water 2, unless otherwise stated.
To test the dynamic properties of the tracer candidate an experimental setup containing a residual oil saturated column was used. […] The column was packed with 70 μm silica beads. Dead crude oil was pumped through the column after which artificial formation water was pumped through the system until residual oil saturation was reached. The tracer candidate was then co-injected with tritiated water (HTO) as a pulse into the water flow. The experiments were conducted with different oil types, different water compositions and at several temperatures.

[2] = Biodegradability in seawater (OECD 306)
Protocol: Tracers must be stable in the harsh reservoir environment, thus their results in the seawater biodegradation component of the HOCNF scheme “OECD (306 1999) guideline for testing chemicals, biodegradation in seawater” often show less than 20% biodegradation ensuring that they automatically are placed in the red category.
(§1) The most important environmental properties were tested on several example compounds. These are biodegradability in seawater and toxicity screening for Skeletonema Costatum. The latter gives a good general indication of the total toxicity of a chemical and in combination with the biodegradability gives a strong indication of the total impact of the environment.

[3] = system: Skeletonema Costatum; experiment: Toxicity screening for Skeletonema Costatum (ISO 10253; 2006); format: cell-based; conditions: exposure of 72 hr
Description: In addition to biodegradation in seawater other tests to be conducted are the toxicity test with Acardia Tonsa (ISO14669; 1999), providing a median lethal concentration (LC50) after an exposure of 48 hr, toxicity test with Skeletonema Costatum (ISO 10253; 2006), providing a median effect concentration (EC50/EL50) after an exposure of 72 hr, toxicity test with Scophthalmus Maximus (PARCOM 2006), providing the mortality of fish after 96 hr at EC50 value and bioaccumulation potential (OECD Guidelines for Testing of Chemicals, 117), providing the logarithm of n-octanol/water partition coefficient.
as §1

| Structure (SMILES) | partition coefficient K [1] | Biodegradability BOD28 [2] | Toxicity EL50 [3] |
| --- | --- | --- | --- |
| OCc1c(F)ccc(F)c1F [2,3,6-TFBOH, 2,3,6-trifluorobenzyl alcohol] | 1.9 | 2% | – |
| OCc1c(F)cc(F)cc1F [2,4,6-TFBOH, 2,4,6-trifluorobenzyl alcohol] | 2.4 | 0-3% | – |
| OCc1c(F)cccc1F [2,6-DFBOH, 2,6-difluorobenzyl alcohol] | 1.5 | 0% | – |
| OCc1ccccc1F [2-FBOH, 2-fluorobenzyl alcohol] | 1.5 | – | – |
| OCc1ccc(F)c(F)c1 [3,4-DFBOH, 3,4-difluorobenzyl alcohol] | 2.1 | – | – |
| OCc1cc(F)cc(F)c1 [3,5-DFBOH, 3,5-difluorobenzyl alcohol] | 2.9 | 2% | – |
| OCc1ccc(F)cc1 [4-FBOH] | – | 3% | Ca 10 mg/L |
